From patent publication US8940892B2, “Triazine derivatives for use in the treatment of malaria” (CSIR, priority 2009, dated 2015)

Key:
[1] = tested on: Plasmodium falciparum (FCR-3); experiment: Antimalarial activity against Plasmodium falciparum FCR-3; type: cell-based; conditions: FCR3, FCR-3 strain
[2] = Cytotoxicity SRB assay (HeLa); type: cell-based; conditions: human, HeLa cells, read-out: Cytotox SRB (HeLa) IC50
[3] = in vivo; cited from earlier work
[4] = tested on: P. falciparum strains resistant to Pyr and CG; conditions: even against strains highly resistant to other DHFR inhibitors; cited from earlier work

SMILES	IC50 [1]	IC50 [2]	gastrointestinal (GI) tolerability [3]	effective concentration in vitro [4]
CC1(C)N=C(N)N=C(N)N1c1ccc(Cl)cc1 [No. 1, Cycloguanil, reference compound]	8.15 ± 4.13 µM	–	–	–
NC1=NC(c2ccccc2)N(Cc2ccc(Cl)c(Cl)c2)C(N)=N1 (stereo not shown) [No. 2]	4.32 ± 1.19 µM	–	–	–
NC1=NC(c2ccccc2)N(CCc2ccc(Cl)cc2)C(N)=N1 (stereo not shown) [No. 3]	7.16 ± 0.626 µM	–	–	–
NC1=NC(c2ccccc2)N(CCc2ccc(Cl)c(Cl)c2)C(N)=N1 (stereo not shown) [No. 4]	4.77 ± 0.297 µM	–	–	–
NC1=NC(c2ccccc2)N(CCOc2ccc(Cl)cc2)C(N)=N1 (stereo not shown) [No. 5]	4.83 ± 0.689 µM	–	–	–
NC1=NC(c2ccccc2)N(CCOc2ccc(Cl)c(Cl)c2)C(N)=N1 (stereo not shown) [No. 6]	2.12 ± 0.75 µM	–	–	–
NC1=NC(c2ccccc2Cl)N(CCCCOc2ccc(Cl)c(Cl)c2)C(N)=N1 (stereo not shown) [No. 7]	2.57 ± 0.7 µM	–	–	–
NC1=NC(c2ccc(C(F)(F)F)cc2)N(CCCOc2ccc(Cl)cc2)C(N)=N1 (stereo not shown) [No. 10]	3.37 ± 0.168 µM	11 µM	–	–
NC1=NC(c2ccccc2)N(CCCOc2ccccc2F)C(N)=N1 (stereo not shown) [No. 14]	0.525 ± 0.0762 µM	67.6 µM	–	–
NC1=NC(c2ccccc2)N(CCCOc2ccc(F)cc2)C(N)=N1 (stereo not shown) [No. 16]	0.395 ± 0.109 µM	–	–	–
NC1=NC(c2ccccc2Cl)N(CCCOc2ccc(Cl)cc2)C(N)=N1 (stereo not shown) [No. 18]	0.859 µM	15.7 µM	–	–
NC1=NC(c2ccc(Cl)c(F)c2)N(CCCOc2ccc(Cl)cc2)C(N)=N1 (stereo not shown) [No. 20]	1.59 µM	13.7 µM	–	–
NC1=NC(c2ccccc2F)N(CCCOc2ccc(Cl)cc2)C(N)=N1 (stereo not shown) [No. 23]	0.412 ± 0.08 µM	52.2 µM	–	–
NC1=NC(c2ccccc2C(F)(F)F)N(CCCOc2ccc(Cl)cc2)C(N)=N1 (stereo not shown) [No. 24]	3.24 ± 0.451 µM	19 µM	–	–
NC1=NC(c2ccc(C(F)(F)F)cc2)N(CCCOc2ccc(Cl)c(Cl)c2)C(N)=N1 (stereo not shown) [No. 25]	4.53 ± 0.631 µM	13.1 µM	–	–
NC1=NC(c2ccccc2C(F)(F)F)N(CCCOc2ccc(Cl)c(Cl)c2)C(N)=N1 (stereo not shown) [No. 26]	3.06 ± 0.042 µM	11.8 µM	–	–
NC1=NC(c2cc(Cl)ccc2Cl)N(CCCOc2ccc(Cl)cc2)C(N)=N1 (stereo not shown) [No. 27]	0.926 ± 0.128 µM	10.9 µM	–	–
NC1=NC(c2ccccc2F)N(CCCOc2ccc(Cl)c(Cl)c2)C(N)=N1 (stereo not shown) [No. 28]	0.337 ± 0.095 µM	29.5 µM	–	–
NC1=NC(c2ccc(F)cc2)N(CCCOc2ccc(Cl)c(Cl)c2)C(N)=N1 (stereo not shown) [No. 29]	35.8 ± 8.97 µM	–	–	–
NC1=NC(c2ccc(Cl)c(F)c2)N(CCCOc2ccc(Cl)c(Cl)c2)C(N)=N1 (stereo not shown) [No. 30]	0.591 ± 0.077 µM	14.5 µM	–	–
NC1=NC(c2ccccc2Cl)N(CCCOc2ccc(Cl)c(Cl)c2)C(N)=N1 (stereo not shown) [No. 31]	8.61 ± 0.998 µM	13.7 µM	–	–
NC1=NC(c2cccc(Cl)c2F)N(CCCOc2ccc(Cl)cc2)C(N)=N1 (stereo not shown) [No. 33]	0.679 ± 0.221 µM	23 µM	–	–
NC1=NC(c2ccc(SC(F)(F)F)cc2)N(CCCOc2ccc(Cl)cc2)C(N)=N1 (stereo not shown) [No. 36]	2.39 ± 0.03 µM	–	–	–
NC1=NC(c2ccc(Cl)cc2Cl)N(CCCOc2ccc(Cl)cc2)C(N)=N1 (stereo not shown) [No. 39]	2.51 ± 0.667 µM	12.1 µM	–	–
NC1=NC(c2cccc(OC(F)(F)F)c2)N(CCCOc2ccc(Cl)cc2)C(N)=N1 (stereo not shown) [No. 40]	> 50 µM	–	–	–
NC1=NC(c2ccc(C(F)(F)F)cc2)N(CCCCCOc2ccc(Cl)cc2)C(N)=N1 (stereo not shown) [No. 44]	3.98 ± 0.612 µM	–	–	–
CC1(C)N=C(N)N=C(N)N1OCCCOc1cc(Cl)c(Cl)cc1Cl [WR99210]	–	–	unacceptable	nanomolar (nM) range

Further compounds by falling IC50 [1], results first:

IC50 [1]	SMILES	IC50 [2]	gastrointestinal (GI) tolerability [3]	effective concentration in vitro [4]
0.171 ± 0.027 µM	NC1=NC(c2ccccc2)N(CCCOc2ccccc2Cl)C(N)=N1 (stereo not shown) [No. 15]	88.8 µM	–	–
0.163 ± 0.05 µM	NC1=NC(c2ccc(F)cc2F)N(CCCOc2ccc(Cl)cc2)C(N)=N1 (stereo not shown) [No. 38]	31.8 µM	–	–
0.156 ± 0.012 µM	NC1=NC(c2cccc(Cl)c2)N(CCCOc2ccc(Cl)cc2)C(N)=N1 (stereo not shown) [No. 21]	14.1 µM	–	–
0.156 ± 0.129 µM	NC1=NC(c2ccc(Cl)cc2)N(CCCOc2ccc(Cl)cc2)C(N)=N1 (stereo not shown) [No. 32]	15.6 µM	–	–
0.155 ± 0.048 µM	NC1=NC(c2ccc(F)cc2)N(CCCOc2ccc(Cl)cc2)C(N)=N1 (stereo not shown) [No. 22]	–	–	–
0.098 ± 0.005 µM	NC1=NC(c2cccc(Cl)c2F)N(CCCOc2ccc(Cl)c(Cl)c2)C(N)=N1 (stereo not shown) [No. 35]	13.6 µM	–	–
0.077 ± 0.032 µM	COc1cccc(C2N=C(N)N=C(N)N2CCCOc2ccc(Cl)cc2)c1F (stereo not shown) [No. 37]	33.3 µM	–	–
0.061 ± 0.036 µM	NC1=NC(c2ccc(Cl)cc2)N(CCCOc2ccc(Cl)c(Cl)c2)C(N)=N1 (stereo not shown) [No. 34]	13.4 µM	–	–
0.0603 ± 0.0087 µM	COc1ccc(OCCCN2C(N)=NC(N)=NC2c2ccccc2)cc1 (stereo not shown) [No. 13]	253 µM	–	–
0.055 ± 0.01 µM	NC1=NC(c2ccccc2)N(CCCOc2ccc(Cl)cc2)C(N)=N1 (stereo not shown) [No. 8]	39 µM	–	–
0.05 ± 0.04 µM	Cc1cccc(C2N=C(N)N=C(N)N2CCCOc2ccc(Cl)cc2)c1 (stereo not shown) [No. 41]	–	–	–
0.047 ± 0.01 µM	COc1cc(C)ccc1OCCCN1C(N)=NC(N)=NC1c1ccccc1 (stereo not shown) [No. 42]	–	–	–
0.046 ± 0.017 µM	COc1ccc(C2N=C(N)N=C(N)N2CCCOc2ccc(Cl)cc2)cc1 (stereo not shown) [No. 19]	25 µM	–	–
0.0444 ± 0.0068 µM	NC1=NC(c2ccccc2)N(CCCOc2ccc(C(F)(F)F)cc2)C(N)=N1 (stereo not shown) [No. 17]	–	–	–
0.0398 ± 0.01 µM	NC1=NC(c2ccccc2)N(CCCOc2ccc(Cl)c(Cl)c2)C(N)=N1 (stereo not shown) [No. 9]	33.5 µM	–	–
0.0307 ± 0.0102 µM	NC1=NC(c2ccccc2)N(CCCOc2cccc(C(F)(F)F)c2)C(N)=N1 (stereo not shown) [No. 12]	14.2 µM	–	–
0.024 ± 0.017 µM	NC1=NC(c2ccccc2)N(CCCOc2ccc(Br)cc2)C(N)=N1 (stereo not shown) [No. 43]	–	–	–
0.000151 ± 7.9e-05 µM	NC1=NC(c2ccccc2)N(CCCOc2ccc(Cl)cc2Cl)C(N)=N1 (stereo not shown) [No. 11]	32.6 µM	–	–
